pIC50: −log10 of the molar value.

One assay concerns HL-60. Briefly: Cytotoxicity against human HL60 cells after 72 hrs by MTT assay. The assay is classed as functional, cell-based. As to conditions: HL-60, 72 h.
In the next assay the test system is BGC-823. Briefly: Cytotoxicity against human BGC823 cells after 72 hrs by MTT assay. It counts as functional, cell-based. The note with it: BGC-823, 72 h. (In general: Tetrazolium assays rely on reduction of a dye to a coloured formazan, in cell work by metabolically active cells.)
Another assay relates to U-266. Description: Cytotoxicity against human U266 cells after 72 hrs by MTT assay. It counts as functional, cell-based. The note with it: U-266, 72 h.
A short description of assay [1]: Inhibition of chymotrypsin-like activity of mouse liver 20S proteasome.
The nature of assay [2]: Inhibition of peptidylglutamyl peptide-hydrolyzing activity of mouse liver 20S proteasome.
In a further assay the test system is BXPC-3. Description: Cytotoxicity against human BxPC3 cells after 72 hrs by MTT assay. The note with it: BXPC-3, 72 h. It counts as functional, cell-based.
The nature of assay [3]: Inhibition of trypsin-like activity of mouse liver 20S proteasome.

Regarding `CC(C)C[C@H](NC(=O)c1cnccn1)C(=O)N[C@@H](Cc1ccc2ccccc2c1)C(=O)N[C@H](CC(C)C)B(O)O`, the pIC50 in the assay on HL-60 was 8.34; in the assay with BGC-823 it was 6.22; in the assay with U-266, 8.00; in assay [1], 10.10; in assay [2], 8.44; with BXPC-3, 7.67. Moreover, the negative-log IC50 (pIC50) in assay [3] was < 7.70.

As to `CC(C)C[C@@H](NC(=O)C(Cc1ccc(O)cc1)NC(=O)[C@H](Cc1ccccc1)NC(=O)c1cnccn1)B1O[C@@H]2[C@@H](C[C@H]3C[C@@H]2C3(C)C)O1` (some centres undefined), the pIC50 in assay [1] was 9.47; in assay [2], 8.27; in assay [3], < 7.70.

With `CC(C)C[C@H](NC(=O)c1cnccn1)C(=O)N[C@@H](CC(C)C)C(=O)N[C@H](CC(C)C)B1O[C@@H]2[C@@H](C[C@H]3C[C@@H]2C3(C)C)O1`, the pIC50 in assay [1], in assay [2] and in assay [3] was < 7.70 each time.

For `CC(C)C[C@@H](NC(=O)[C@H](Cc1ccccc1)NC(=O)[C@H](Cc1c[nH]c2ccccc12)NC(=O)c1cnccn1)B1O[C@@H]2[C@@H](C[C@H]3C[C@@H]2C3(C)C)O1`, the pIC50 in assay [1], in assay [2] and in assay [3] was < 7.70 throughout.

With `CC(C)C[C@H](NC(=O)[C@H](Cc1ccccc1)NC(=O)c1cnccn1)C(=O)N[C@H](CC(C)C)B1O[C@@H]2[C@@H](C[C@H]3C[C@@H]2C3(C)C)O1`, the results for the pIC50 in assay [1], in assay [2] and in assay [3] were 9.54, 8.56 and < 7.70, respectively.

Turning to `CC(C)C[C@@H](NC(=O)[C@H](Cc1ccc2ccccc2c1)NC(=O)[C@H](Cc1ccccc1)NC(=O)c1cnccn1)B1O[C@@H]2[C@@H](C[C@H]3C[C@@H]2C3(C)C)O1`, the pIC50 in assay [1] was 9.35; in assay [2], < 7.70; in assay [3], < 7.70.

Turning to `CC(C)C[C@@H](NC(=O)[C@H](Cc1ccccc1)NC(=O)[C@H](Cc1ccc2ccccc2c1)NC(=O)c1cnccn1)B(O)O`, the pIC50 was 8.00 with HL-60; 5.55 with BGC-823; 7.28 in the assay on U-266; 9.38 in assay [1]; 8.35 in assay [2]; 7.50 with BXPC-3. Besides, the pIC50 in assay [3] is < 7.70.

Regarding `CC(C)C[C@@H](NC(=O)[C@H](Cc1c[nH]c2ccccc12)NC(=O)[C@H](Cc1ccccc1)NC(=O)c1cnccn1)B(O)O`, the pIC50 in assay [1], in assay [2] and in assay [3] was < 7.70 in each case.

Consider `CC(C)C[C@H](NC(=O)c1cnccn1)C(=O)N[C@@H](Cc1ccc2ccccc2c1)C(=O)N[C@H](CC(C)C)B1O[C@@H]2[C@@H](C[C@H]3C[C@@H]2C3(C)C)O1`, for which the pIC50 in assay [1] was 9.43; in assay [2], 8.41; in assay [3], < 7.70.

Consider `CC(C)C[C@H](NC(=O)[C@H](Cc1ccccc1)NC(=O)c1cnccn1)B(O)O` [BORTEZOMIB], for which the pIC50 in assay [1] is 9.79; in assay [2] it was < 7.70; in assay [3], < 7.70.

Consider `CC(C)C[C@@H](NC(=O)[C@H](Cc1ccc(O)cc1)NC(=O)[C@H](Cc1ccccc1)NC(=O)c1cnccn1)B(O)O`, for which the pIC50 in the assay with HL-60 was 6.26; in the assay on BGC-823, 5.29; with U-266, 6.60; in assay [1], 9.40; in assay [2] it was 8.40; in the assay on BXPC-3, 6.35. Further, in assay [3], the pIC50 was < 7.70.

Regarding `CC(C)C[C@@H](NC(=O)[C@H](Cc1ccccc1)NC(=O)[C@H](Cc1ccccc1)NC(=O)c1cnccn1)B1O[C@@H]2[C@@H](C[C@H]3C[C@@H]2C3(C)C)O1`, the pIC50 was 9.40 in assay [1], 8.08 in assay [2] and < 7.70 in assay [3].

As for `CC(C)C[C@@H](NC(=O)[C@H](Cc1ccccc1)NC(=O)[C@H](Cc1c[nH]c2ccccc12)NC(=O)c1cnccn1)B(O)O`, the negative logarithm of the IC50 (pIC50) in assay [1], in assay [2] and in assay [3] was < 7.70 in each case.

On to `CC(C)C[C@@H](NC(=O)[C@H](Cc1ccccc1)NC(=O)[C@H](Cc1ccc(O)cc1)NC(=O)c1cnccn1)B1O[C@@H]2[C@@H](C[C@H]3C[C@@H]2C3(C)C)O1`, for which the pIC50 in assay [1] was 9.53; in assay [2], 8.32; in assay [3], < 7.70.

As for `CC(C)C[C@@H](NC(=O)[C@H](Cc1c[nH]c2ccccc12)NC(=O)[C@H](Cc1ccccc1)NC(=O)c1cnccn1)B1O[C@@H]2[C@@H](C[C@H]3C[C@@H]2C3(C)C)O1`, the pIC50 in assay [1], in assay [2] and in assay [3] was < 7.70 throughout.

In the case of `CC(C)C[C@@H](NC(=O)[C@H](Cc1ccccc1)NC(=O)[C@H](Cc1ccc2ccccc2c1)NC(=O)c1cnccn1)B1O[C@@H]2[C@@H](C[C@H]3C[C@@H]2C3(C)C)O1`, the pIC50 in assay [1] was 9.66; in assay [2], < 7.70; in assay [3], < 7.70.

Take `CC(C)C[C@H](NC(=O)[C@H](Cc1ccccc1)NC(=O)c1cnccn1)C(=O)N[C@H](CC(C)C)B(O)O`: the results for the pIC50 in assay [1], in assay [2] and in assay [3] were 9.76, 8.25 and < 7.70, respectively.

With `CC(C)C[C@@H](NC(=O)[C@H](Cc1ccc2ccccc2c1)NC(=O)[C@H](Cc1ccc2ccccc2c1)NC(=O)c1cnccn1)B1O[C@@H]2[C@@H](C[C@H]3C[C@@H]2C3(C)C)O1`, the pIC50 in assay [1] is 9.31; in assay [2], < 7.70; in assay [3], < 7.70.

For `CC(C)C[C@@H](NC(=O)[C@H](Cc1ccccc1)NC(=O)[C@H](Cc1ccc(O)cc1)NC(=O)c1cnccn1)B(O)O`, the pIC50 is 6.35 in the assay with HL-60; 5.61 in the assay with BGC-823; 7.18 with U-266; 9.58 in assay [1]; 8.60 in assay [2]; 6.59 with BXPC-3. Also, the pIC50 in assay [3] is < 7.70.

For the compound `CC(C)C[C@@H](NC(=O)[C@H](Cc1ccc2ccccc2c1)NC(=O)[C@H](Cc1ccccc1)NC(=O)c1cnccn1)B(O)O`, the pIC50 in the assay with HL-60 is 8.13; in the assay with BGC-823, 5.98; with U-266 it was 7.80; in assay [1], 9.95; in assay [2], 8.42; in the assay on BXPC-3, 7.54. The pIC50 in assay [3] is < 7.70.

As to `CC(C)C[C@@H](NC(=O)[C@H](Cc1ccc2ccccc2c1)NC(=O)[C@H](Cc1ccc2ccccc2c1)NC(=O)c1cnccn1)B(O)O`, the pIC50 with HL-60 was 7.71; in the assay on BGC-823, 5.61; in the assay with U-266, 6.71; in assay [1], 9.47; in assay [2], < 7.70; in the assay with BXPC-3 it was 7.48. Also, the pIC50 in assay [3] is < 7.70.

On to `CC(C)C[C@H](NC(=O)c1cnccn1)C(=O)N[C@@H](Cc1ccccc1)C(=O)N[C@H](CC(C)C)B(O)O`, for which the values for the pIC50 in assay [1], in assay [2] and in assay [3] were 9.72, 8.29 and < 7.70, respectively.

As for `CC(C)C[C@@H](NC(=O)[C@H](Cc1ccccc1)NC(=O)[C@H](Cc1ccccc1)NC(=O)c1cnccn1)B(O)O`, the results for the pIC50 in assay [1], in assay [2] and in assay [3] were 9.26, 7.96 and < 7.70, respectively.

Regarding `CC(C)C[C@H](NC(=O)c1cnccn1)C(=O)N[C@@H](CC(C)C)C(=O)N[C@H](CC(C)C)B(O)O`, the pIC50 in assay [1], in assay [2] and in assay [3] was < 7.70 in each case.

In the case of `CC(C)C[C@H](NC(=O)c1cnccn1)C(=O)N[C@@H](Cc1ccccc1)C(=O)N[C@H](CC(C)C)B1O[C@@H]2[C@@H](C[C@H]3C[C@@H]2C3(C)C)O1`, the figures for the pIC50 in assay [1], in assay [2] and in assay [3] were 9.37, 8.47 and < 7.70, respectively.

Consider `CC(C)C[C@H](NC(=O)[C@H](Cc1ccc2ccccc2c1)NC(=O)c1cnccn1)C(=O)N[C@H](CC(C)C)B(O)O`, for which the pIC50 is 7.82 with HL-60; 5.76 in the assay with BGC-823; 6.92 in the assay on U-266; 9.66 in assay [1]; 7.89 in assay [2]; 7.36 in the assay with BXPC-3. In addition, the pIC50 in assay [3] was < 7.70.

Turning to `CC(C)C[C@H](NC(=O)[C@H](Cc1ccc2ccccc2c1)NC(=O)c1cnccn1)C(=O)N[C@H](CC(C)C)B1O[C@@H]2[C@@H](C[C@H]3C[C@@H]2C3(C)C)O1`, the figures for the pIC50 in assay [1], in assay [2] and in assay [3] were 9.46, 7.85 and < 7.70, respectively.

Broadly, the pIC50 is −log10 of the IC50, conventionally taken in molar units.

These data come from ChEMBL document CHEMBL1152604, “Design, synthesis and biological evaluation of tripeptide boronic acid proteasome inhibitors” (Bioorg Med Chem, 2009).
